# Earlier results, collected in patent publication US20090214619A1, “IMPLANT FOR INTRAOCULAR DRUG DELIVERY” (THERAKINE LTD., priority 2004, published 2009).
# B1: IL-4: pleiotropic cytokine produced by activated T cells, mast cells, and basophiles (protein, UniProt P05112 25-153, looked up)
# Interleukin-4: HKCDITLQEIIKTLNSLTEQKTLCTELTVTDIFAASKNTTEKETFCRAATVLRQFYSHHEKDTRCLGATAQQFHRHKQLIRFLKRLDRNLWGLAGLNSCPVKEANQSTLENFLERLKTIMREKYSKCSS
# What was measured:
# [1] = system: degenerative diseases such as choroidal neovascularization, macular edema, macular degeneration, branch retinal vein occlusion; details: patients with choroidal neovascularization
# HSP induced uveitis = details: rats with HSP induced uveitis; decreased from 68% without treatment
Molecule,effect on vision [1],development of uveitis (HSP induced uveitis) [%]
Infliximab: chimeric Anti TNF Mab,improve vision,
B1,,30.4
